Reference: publication PMC3050703 (Cancer chemotherapy and pharmacology, 2010)
Read-outs that look alike come from different tables or passages of the source.

What was measured:
HCT116 colon cancer = conditions: ref [1], cited from earlier work
Aurora kinase A = conditions: read-out: Ki Aurora kinase A; ref [3]; cited from earlier work
advanced solid tumors = assay: Anti-tumor activity per RECIST in patients; assay type: in vivo, human
[1] = Plasma pharmacokinetics in patients; assay type: in vivo, human; conditions: for clearance / half-life / Vd / Cmax: human, plasma, intravenous
MCF-7 cells = conditions: read-out: IC50 proliferation of transformed MCF-7 cells; ref [1]; cited from earlier work
Abl = conditions: read-out: Ki Abl; ref [3]; cited from earlier work
[2] = test system: xenografts of leukemia, pancreatic cancer, and colon cancer; conditions: ref [1]; cited from earlier work
T315I mutant Abl kinase = conditions: read-out: Ki T315I mutant Abl; ref [3]; cited from earlier work
[3] = Dose Level 1 (4 mg/m^2/hr), N=1, any cycle, regardless of attribution
[4] = Dose Level 2 (8 mg/m^2/hr), N=2, any cycle, regardless of attribution
[5] = Dose Level 3 (16 mg/m^2/hr), N=2, any cycle, regardless of attribution
[6] = Dose Level 4 (32 mg/m^2/hr), N=3, any cycle, regardless of attribution
[7] = Dose Level 5 (45 mg/m^2/hr), N=4, any cycle, regardless of attribution
[8] = Dose Level 6 (64 mg/m^2/hr), N=2, any cycle
[9] = Dose Level 6 (64 mg/m^2/hr), N=2, any cycle, regardless of attribution
[10] = Dose Level 6 (oral 100 mg) (64 mg/m^2/hr), N=7, any cycle
[11] = Dose Level 6 (oral 100 mg) (64 mg/m^2/hr), N=7, any cycle, regardless of attribution
[12] = Dose Level 7 (96 mg/m^2/hr), N=6, any cycle
[13] = Dose Level 7 (96 mg/m^2/hr), N=6, any cycle, regardless of attribution

## Cc1cc(Nc2cc(N3CCN(C)CC3)nc(Sc3ccc(NC(=O)C4CC4)cc3)n2)[nH]n1 [MK-0457]
96 mg/m^2/hr 24-hour CIV infusion (dose level 7)
  dose limiting toxicity: […]
24-hour CIV infusion every 21 days, patients with advanced solid tumors
  maximum tolerated dose (MTD): […]
[3]
  number of patients with Dehydration Grade 2: […]
  number of patients with Fatigue Grade 2: […]
  number of patients with Nausea Grade 3: […]
  number of patients with Vomiting Grade 3: […]
[4]
  number of patients with Arthralgia Grade 2: […]
  number of patients with Back pain Grade 2: […]
  number of patients with Fatigue Grade 2: […]
  number of patients with Hypoalbuminemia Grade 2: […]
  number of patients with Increased alk phos (alkaline phosphatase) Grade 2: […]
  number of patients with Urinary tract infection Grade 2: […]
[5]
  number of patients with Diarrhea Grade 2: […]
  number of patients with Nausea Grade 3: […]
  number of patients with Vomiting Grade 3: […]
[6]
  number of patients with Arthralgia Grade 2: […]
  number of patients with Diarrhea Grade 2: […]
  number of patients with Fatigue Grade 2: […]
  number of patients with Nausea Grade 2: […]
  number of patients with Vomiting (printed on the heading line, no grade): […]
Dose Level 5 (45 mg/m^2/hr), N=4, any cycle
  number of patients with Neutropenia Grade 3: […]
[7]
  number of patients with Back pain Grade 2: […]
  number of patients with Dyspnea Grade 2: […]
  number of patients with Fatigue Grade 2: […]
  number of patients with Hypophosphatemia Grade 3: […]
  number of patients with Nausea Grade 2: […]
  number of patients with Vomiting (printed on the heading line, no grade): […]
[8]
  number of patients with Leukopenia Grade 3: […]
  number of patients with Neutropenia Grade 3: […]
[9]
  number of patients with Arthralgia Grade 2: […]
  number of patients with Fatigue Grade 3: […]
  number of patients with Hyperglycemia Grade 3: […]
  number of patients with Hypoalbuminemia Grade 2: […]
  number of patients with Hypophosphatemia Grade 2: […]
  number of patients with Urinary tract infection Grade 2: […]
[10]
  number of patients with Leukopenia Grade 3: […]
  number of patients with Neutropenia Grade 3: […]
[11]
  number of patients with Arthralgia Grade 4: […]
  number of patients with Back pain Grade 2: […]
  number of patients with Dehydration Grade 2: […]
  number of patients with Diarrhea Grade 3: […]
  number of patients with Dyspnea Grade 2: […]
  number of patients with Fatigue Grade 2: […]
  number of patients with Hyperglycemia Grade 2: […]
  number of patients with Hyperglycemia Grade 3: […]
  number of patients with Hypoalbuminemia Grade 2: […]
  number of patients with Hypophosphatemia Grade 2: […]
  number of patients with Hypophosphatemia Grade 3: […]
  number of patients with Nausea Grade 2: […]
  number of patients with Urinary tract infection Grade 2: […]
  number of patients with Vomiting Grade 3: […]
[12]
  number of patients with Anemia Grade 3: […]
  number of patients with Leukopenia Grade 3: […]
  number of patients with Neutropenia Grade 3: […]
  number of patients with Neutropenia Grade 4: […]
[13]
  number of patients with Diarrhea Grade 2: […]
  number of patients with Dyspnea Grade 3: […]
  number of patients with Fatigue Grade 2: […]
  number of patients with Hypoalbuminemia Grade 3: […]
  number of patients with Increased alk phos (alkaline phosphatase) Grade 2: […]
  number of patients with Urinary tract infection Grade 2: […]
ECG pre-dose and after 24-hour infusion, cycle 1
  prolongation of the QTc: not observed
All dose levels, any cycle
  febrile neutropenia: no cases
Of 27 patients (11%)
  patients with dose reduced due to toxicity: Three
Of 27 patients (15%)
  patients with treatment delayed or dose reduced due to toxicity: […]
Of 27 patients (33%), all dose levels
  patients with serious adverse events regardless of attribution: […]
Patients who received MK-0457
  deaths on study or within 30 days of follow-up: no deaths
Single 100 mg capsule, between oral dose and start of CIV infusion, 7 patients
  adverse events at least possibly related to study drug after oral dose: No adverse events
HCT116 colon cancer
  marked tumor regression, number of HCT116 nude rat models: […]
HCT116 colon cancer; suggested by nude rat models
  target plasma concentration for achieving efficacy: […]
Aurora kinase A
  Ki: […]
Advanced solid tumors; 12 patients, range 38 – 328 days
  median duration of stable disease: […]
Advanced solid tumors; all dose levels
  objective anti-tumor responses (RECIST): no objective anti-tumor responses
[1]; 24-hour CIV 16 mg/m^2/hr, N=1, cycle 1
  Total AUC: […]
[1]; 24-hour CIV infusion
  dose-adjusted AUC (average): […]
[1]
  clearance: […]
  half-life: […]
[1]; 8 mg/m2
  Vd: 735 L
[1]; 8 mg/m^2/hr
  Cmax: […]
[1]; 16 mg/m2
  Vd: 514 L
[1]; 16 mg/m^2/hr
  Cmax: […]
[1]; 32 mg/m2
  Vd: 328 L
[1]; 32 mg/m^2/hr
  Cmax: 2.17 µM
[1]; 45 mg/m2
  Vd: 429 L
[1]; 45 mg/m^2/hr
  Cmax: […]
[1]; 64 mg/m2
  clearance: 1270 mL/min
[1]; 64 mg/m^2/hr
  Cmax: […]
[1]; 96 mg/m2
  Vd: […]
  clearance: […]
  half-life: […]
[1]; 96 mg/m^2/hr
  Cmax: 7.63 µM
MCF-7 cells
  IC50: […]
Abl
  Ki: […]
[2]
  tumor response in nude mice xenografts: marked tumor regression
T315I mutant Abl kinase
  Ki: […]
